From PubChem BioAssay AID248 (DTP/NCI, 2004)
“And” between values parts separate entries of the source, which are not always exact repeats. Identical values can stand only once. Inconclusive results and toxic doses are left out. Cut-off read from the data, not from the text of the source: active = T/C of 150% or more; inactive = T/C below 125%.

Test system: L1210 leukemia ip in BDF1 mice, survival T/C
Assay: NCI In Vivo Anticancer Drug Screen. Data for tumor model L1210 Leukemia (intraperitoneal) in B6D2F1 (BDF1) mice
Conditions: endpoint: mean survival time, higher = longer survival
Summary of the method: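 In this screen, tumor-bearing mice given compound are compared to those given vehicle, and their survival values are reported as a treated-to-control quotient.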

[1] = dose: 100.0 mg/kg/injection, schedule: Q04DX002 (ip), vehicle: Klucel (hydroxypropylcellulose) (HPC)
[2] = dose: 200.0 mg/kg/injection, schedule: Q04DX002 (ip), vehicle: Klucel (hydroxypropylcellulose) (HPC)
[3] = dose: 400.0 mg/kg/injection, schedule: Q04DX002 (ip), vehicle: Klucel (hydroxypropylcellulose) (HPC)
[4] = dose: 100.0 mg/kg/injection, schedule: Q04DX003 (ip), vehicle: saline with Tween-80
[5] = dose: 200.0 mg/kg/injection, schedule: Q04DX003 (ip), vehicle: saline with Tween-80
[6] = dose: 400.0 mg/kg/injection, schedule: Q04DX003 (ip), vehicle: saline with Tween-80
[7] = dose: 100.0 mg/kg/injection, schedule: Q04DX003 (ip), vehicle: saline
[8] = dose: 200.0 mg/kg/injection, schedule: Q04DX003 (ip), vehicle: saline
[9] = dose: 100.0 mg/kg/injection, schedule: Q01DX001 (ip), vehicle: saline
[10] = dose: 200.0 mg/kg/injection, schedule: Q01DX001 (ip), vehicle: saline
[11] = dose: 400.0 mg/kg/injection, schedule: Q01DX001 (ip), vehicle: saline
[12] = dose: 100.0 mg/kg/injection, schedule: Q01DX009 (ip), vehicle: Klucel (hydroxypropylcellulose) (HPC)
[13] = dose: 100.0 mg/kg/injection, schedule: Q04DX003 (ip), vehicle: Klucel (hydroxypropylcellulose) (HPC)
[14] = dose: 200.0 mg/kg/injection, schedule: Q01DX009 (ip), vehicle: Klucel (hydroxypropylcellulose) (HPC)
[15] = dose: 200.0 mg/kg/injection, schedule: Q04DX003 (ip), vehicle: Klucel (hydroxypropylcellulose) (HPC)
[16] = dose: 400.0 mg/kg/injection, schedule: Q01DX009 (ip), vehicle: Klucel (hydroxypropylcellulose) (HPC)
[17] = dose: 400.0 mg/kg/injection, schedule: Q04DX003 (ip), vehicle: Klucel (hydroxypropylcellulose) (HPC)
[18] = dose: 100.0 mg/kg/injection, schedule: Q01DX009 (ip), vehicle: saline with Tween-80
[19] = dose: 200.0 mg/kg/injection, schedule: Q01DX009 (ip), vehicle: saline with Tween-80
[20] = dose: 400.0 mg/kg/injection, schedule: Q01DX009 (ip), vehicle: saline with Tween-80
[21] = dose: 50.0 mg/kg/injection, schedule: Q01DX009 (ip), vehicle: Klucel (hydroxypropylcellulose) (HPC)
[22] = dose: 50.0 mg/kg/injection, schedule: Q04DX003 (ip), vehicle: Klucel (hydroxypropylcellulose) (HPC)
[23] = dose: 100.0 mg/kg/injection, schedule: Q01DX001 (ip), vehicle: Klucel (hydroxypropylcellulose) (HPC)
[24] = dose: 200.0 mg/kg/injection, schedule: Q01DX001 (ip), vehicle: Klucel (hydroxypropylcellulose) (HPC)

Measured: T/C

Cc1ccc(S(=O)(=O)Nc2ccccc2)cc1
inactive: [1] 100 % of control | [2] 94 % of control | [3] 91 % of control

CC(NC1=NCCO1)c1cccc2ccccc12 (stereo not drawn)
inactive: dose: 25.0 mg/kg/injection, schedule: Q01DX009 (ip), vehicle: saline with Tween-80 94 % of control | dose: 50.0 mg/kg/injection, schedule: Q01DX009 (ip), vehicle: saline with Tween-80 94 % of control | [4] 96 % of control | [5] 94 % of control | [6] 89 % of control

C=C(C)CC#N
inactive: [7] 104 % of control | [8] 109 % of control

O=C(CNCc1ccccc1)Oc1c(Cl)c(Cl)c(Cl)c(Cl)c1Cl
inactive: dose: 100.0 mg/kg/injection, schedule: Q04DX003 (ip), vehicle: other 94 % of control | dose: 200.0 mg/kg/injection, schedule: Q04DX003 (ip), vehicle: other 93 % of control

N#CC1OB(O)c2ccccc21 (stereo not drawn)
inactive: [7] 93 % of control | [8] 100 % of control | dose: 400.0 mg/kg/injection, schedule: Q04DX003 (ip), vehicle: saline 93 % of control

Cc1ccc([NH-])cc1.Cc1ccc([NH-])cc1.[Cl][Pt+2][Cl]
inactive: dose: 6.25 mg/kg/injection, schedule: Q01DX009 (ip), vehicle: saline with Tween-80 101 % of control | dose: 12.5 mg/kg/injection, schedule: Q01DX009 (ip), vehicle: saline with Tween-80 95 % of control

O=[N+]([O-])c1cccc(Cl)c1/C=N/Nc1nnc(N/N=C/c2c(Cl)cccc2[N+](=O)[O-])c2ccccc12
inactive: dose: 50.0 mg/kg/injection, schedule: Q01DX001 (ip), vehicle: saline 96 % of control | [9] 96 % of control | [10] 98 % of control | [11] 98 % of control

Cc1cc([N+](=O)[O-])ccc1NC(=O)Nc1cccc(F)c1
inactive: [12] 96 % of control | [1] 90 % of control | [13] 95 % of control | [14] 94 % of control | [2] 88 % of control | [15] 95 % of control | [16] 88 % of control | [3] 88 % of control | [17] 95 % of control

CCCCC(=O)N1CCOCC1
inactive: dose: 100.0 mg/kg/injection, schedule: Q04DX002 (ip), vehicle: saline 107 % of control | dose: 200.0 mg/kg/injection, schedule: Q04DX002 (ip), vehicle: saline 101 % of control | dose: 400.0 mg/kg/injection, schedule: Q04DX002 (ip), vehicle: saline 107 % of control

CC1(c2ccccc2)O[C@@H]2C[C@H]3[C@@H]4CCC5=CC(=O)C=C[C@]5(C)[C@@]4(F)[C@@H](O)C[C@]3(C)[C@]2(C(=O)CO)O1 (stereo partly drawn)
inactive: dose: 100.0 mg/kg/injection, schedule: Q01DX001 (sc), vehicle: steriod suspending solution 117 % of control | dose: 200.0 mg/kg/injection, schedule: Q01DX001 (sc), vehicle: steriod suspending solution 98 % of control | dose: 400.0 mg/kg/injection, schedule: Q01DX001 (sc), vehicle: steriod suspending solution 107 % of control

Cc1cccc(=O)n1Cc1ccccc1
inactive: [9] 104 % of control | [18] 97 % of control | [10] 98 % of control | [19] 91 % of control | [11] 105 % of control | [20] 88 % of control

C=CCc1ccc2c(C)cc[n+](C)c2c1O
inactive: [9] 91 % of control | [10] 93 % of control

CN(C)CCCCl
inactive: dose: 25.0 mg/kg/injection, schedule: Q01DX Z (ip), vehicle: other 102 % of control | dose: 50.0 mg/kg/injection, schedule: Q01DX009 (ip), vehicle: saline 90 % of control | dose: 50.0 mg/kg/injection, schedule: Q01DX Z (ip), vehicle: other 102 % of control | dose: 75.0 mg/kg/injection, schedule: Q04DX003 (ip), vehicle: saline 101 % of control | dose: 100.0 mg/kg/injection, schedule: Q01DX Z (ip), vehicle: other 92 % of control | dose: 150.0 mg/kg/injection, schedule: Q04DX003 (ip), vehicle: saline 93 % of control

S=C(N/N=C/c1ccc2c(c1)CCC2)Nc1ccccc1
inactive: [13] 103 % of control | [15] 92 % of control | [17] 100 % of control

OC(CCN1CCCCC1)(c1ccccc1)C1CCCC1 (stereo not drawn)
inactive: dose: 6.25 mg/kg/injection, schedule: Q01DX009 (ip), vehicle: Klucel (hydroxypropylcellulose) (HPC) 114 % of control | dose: 12.5 mg/kg/injection, schedule: Q01DX009 (ip), vehicle: Klucel (hydroxypropylcellulose) (HPC) 100 % of control | dose: 25.0 mg/kg/injection, schedule: Q01DX009 (ip), vehicle: Klucel (hydroxypropylcellulose) (HPC) 94 % of control | dose: 25.0 mg/kg/injection, schedule: Q04DX003 (ip), vehicle: Klucel (hydroxypropylcellulose) (HPC) 100 % of control | [21] 97 % of control | [22] 96 % of control | [12] 97 % of control | [13] 96 % of control

O=C1C(Cl)=C(Nc2ccc(Cl)c(Cl)c2)C(=O)c2ccccc21
inactive: [4] 98 % of control | [5] 92 % of control | [6] 98 % of control

C/C(=C\c1ccccc1Cl)[N+](=O)[O-]
inactive: [12] 95 % of control | [13] 100 % of control | [14] 93 % of control | [15] 96 % of control | [17] 105 % of control

ClCc1ccccc1CCc1ccccc1CCl
inactive: [13] 105 % of control | [15] 94 % of control | [17] 105 % of control

Nc1c(C(F)(F)F)[nH]c(Cl)nc1=S
inactive: dose: 29.0 mg/kg/injection, schedule: Q01DX Z (ip), vehicle: methylcellulose (MC) 105 % of control | dose: 66.0 mg/kg/injection, schedule: Q01DX Z (ip), vehicle: methylcellulose (MC) 94 % of control

CC1COP(Oc2ccccc2)O1 (stereo not drawn)
inactive: [9] 113 % of control | [10] 115 % of control | [11] 96 % of control

Cc1ccc(N2CCN(C(C)(C)C#N)CC2)cc1
inactive: [9] 102 % of control | [10] 98 % of control

COC1OC2COCOC2C(OC(C)=O)C1OC(C)=O (stereo not drawn)
inactive: dose: 50.0 mg/kg/injection, schedule: Q04DX002 (ip), vehicle: Klucel (hydroxypropylcellulose) (HPC) 104 % of control | [1] 103 % of control and 100 % of control | [2] 95 % of control and 104 % of control and 92 % of control | [3] 103 % of control and 113 % of control

O=C(N/N=C/c1ccc(N(CCCl)CCCl)cc1)c1ccc(C(=O)N/N=C/c2ccc(N(CCCl)CCCl)cc2)cc1
inactive: [21] 98 % of control | [12] 90 % of control | [13] 95 % of control | [15] 100 % of control

O=C(Nc1ccccc1O)c1ccccc1Cl
inactive: [12] 96 % of control | [14] 98 % of control | [16] 91 % of control

CC(C)COC(=O)c1cc(O)c(O)c(O)c1
inactive: [18] 100 % of control | [4] 97 % of control | [19] 107 % of control | [5] 105 % of control | [20] 107 % of control | [6] 95 % of control

CN1C(c2ccc(Cl)cc2)OCC1(C)C (stereo not drawn)
inactive: dose: 100.0 mg/kg/injection, schedule: Q04DX003 (ip), vehicle: saline sonified 90 % of control | dose: 200.0 mg/kg/injection, schedule: Q04DX003 (ip), vehicle: saline sonified 92 % of control

O=C(CN1CCOCC1)Nc1cccc(C(F)(F)F)c1
inactive: [18] 96 % of control | [4] 101 % of control | [19] 104 % of control | [5] 111 % of control | [20] 109 % of control | [6] 97 % of control

CC1CC(C#N)Nc2ccccc2N1 (stereo not drawn)
inactive: dose: 50.0 mg/kg/injection, schedule: Q01DX001 (ip), vehicle: Klucel (hydroxypropylcellulose) (HPC) 109 % of control | [21] 96 % of control | [22] 98 % of control | [23] 106 % of control | [12] 93 % of control and 121 % of control | [13] 100 % of control and 104 % of control | [24] 104 % of control | [14] 86 % of control | [15] 96 % of control and 90 % of control | [17] 101 % of control

COC1=CC(C)C2CC3OC(O)CC4C(C)=C(OC)C(=O)C(C2(C)C1=O)C34C (stereo not drawn)
inactive: [23] 102 % of control | [12] 91 % of control | [13] 96 % of control | [24] 105 % of control | [14] 100 % of control | [15] 97 % of control | dose: 400.0 mg/kg/injection, schedule: Q01DX001 (ip), vehicle: Klucel (hydroxypropylcellulose) (HPC) 105 % of control | [16] 94 % of control | [17] 96 % of control
